In article PMC3923664, “A Long-Chain Flavodoxin Protects Pseudomonas aeruginosa from Oxidative Stress and Host Bacterial Clearance” (PLoS Genetics, 2014):

Experiments:
IsiB = biological target: T1, IsiB (Nostoc sp. PCC 7119, UniProt P0A3E0); assay: UV-visible absorption spectrum of purified holoprotein; format: binding; conditions: co-purified prosthetic group; 50 mM Tris-HCl pH 8.5
T1 construct: recombinant, expressed in E. coli and purified after Fillat et al; long-chain flavodoxin
T1 sequence (P0A3E0 2-170): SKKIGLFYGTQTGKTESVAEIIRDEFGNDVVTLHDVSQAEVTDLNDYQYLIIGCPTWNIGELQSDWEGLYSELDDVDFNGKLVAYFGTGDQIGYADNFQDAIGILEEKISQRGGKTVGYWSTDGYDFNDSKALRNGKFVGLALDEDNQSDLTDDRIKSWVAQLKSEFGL

FldA = biological target: T2, FldA (Escherichia coli, UniProt P61949); assay: as above; format: binding; conditions: co-purified prosthetic group; 50 mM Tris-HCl pH 8.5
T2 construct: purified; preparation not described
T2 sequence (P61949 2-176): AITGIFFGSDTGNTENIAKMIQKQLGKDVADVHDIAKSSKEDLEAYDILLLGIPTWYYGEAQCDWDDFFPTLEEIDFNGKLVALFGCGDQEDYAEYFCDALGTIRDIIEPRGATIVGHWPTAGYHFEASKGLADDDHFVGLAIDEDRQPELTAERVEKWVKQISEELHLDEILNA

Cc1cc2nc3c(=O)[nH]c(=O)nc-3n(C[C@H](O)[C@H](O)[C@H](O)COP(=O)(O)O)c2cc1C [FMN]
UV-visible absorption spectrum of purified holoprotein (IsiB): is strongly red-shifted in the flavodoxins from Anabaena and E. coli (Figure 2A) | UV-visible absorption spectrum of purified holoprotein (FldA): is strongly red-shifted in the flavodoxins from Anabaena and E. coli (Figure 2A)
